US20100137342A1, “METHODS FOR TREATING VASCULAR […]” (Myriad Pharmaceuticals, Inc., priority 2007, published 2010)
Where a name gives a salt, the structure may show the parent alone.

Legend:
[1] = tested on: human ovarian OVCAR-3 carcinoma cells; test: Vascular disruption effects in human tumor xenograft model (tumor histology, hematoxylin and eosin); format: in vivo, mice; details: 24 hours after dosing; for blood vessels in the necrotic areas / tumor necrosis pattern (central area of the tumors): OVCAR-3 xenograft in Crl:Nu/Nu-nuBR mice, 10 mg/kg compound or 100 mg/kg CA4P, H&E sections
Description: (4-Methoxy-phenyl)-methyl-(2-methyl-quinazolin-4-yl)-amine hydrochloride was tested in a human tumor xenograft model to determine its vascular disruption effects. Crl:Nu/Nu-nuBR mice were grown and injected with 1×10^7 human ovarian OVCAR-3 carcinoma cells on the right flank and allowed to grow to various tumor volumes. Mice were then dosed with either vehicle, 100 mg/kg combretastatin A-4 phosphate (CA4P) (obtained from Toronto Research Chemicals, Ontario, Canada) or 10 mg/kg (4-Methoxy-phenyl)-methyl-(2-methyl-quinazolin-4-yl)-amine hydrochloride.
Animals were housed by groups in Positive Individual Ventilation (PIV) cages in flat-bottom cages (Thoren Caging Systems, Hazelton, Pa.) with no more than ten mice per cage. Cages contained autoclaved TEK-Fresh bedding (Harlan, Indianapolis, Ind.), which was changed every seven days. Environmental controls were set to maintain a temperature between 65° F. and 75° F. with a relative humidity of 30-70% in a 12:12 hour light:dark cycle. Animals were feed gamma-irradiated 2019 rodent chow ad libitum (Harlan, Indianapolis, Ind.). Tap water was sterilized using manufacture recommended conditions and supplied via an automated watering system ad libitum (Edstrom Industries, Waterford, Wis.). Twenty four hours after dosing, mice were sacrificed and tumors and hearts removed, fixed, sectioned and stained with hematoxylin and eosin Y (each obtained from Richard Allen Scientific, Kalamazoo, Mich.).

[2] = Phase I clinical trial, weekly intravenous administration, subjects with refractory solid tumors; format: in vivo, human; details: Phase 1, i.v. weekly x3 per 4 week cycle, 0.3-3.3 mg/m^2
Description: An open-label, dose-escalating, multiple-dose study to define the safety, tolerability and phamacokinetics of weekly intravenous administration of (4-Methoxy-phenyl)-methyl-(2-methyl-quinazolin-4-yl)-amine hydrochloride was performed. A dosing schedule (each 4 week cycle) was performed for (4-Methoxy-phenyl)-methyl-(2-methyl-quinazolin-4-yl)-amine hydrochloride weekly for 3 weeks with no infusion on the fourth week of each cycle. Subjects with refractory solid tumors were enrolled in cohorts of 3. During Cycle 1, subjects were hospitalized during each infusion of (4-Methoxy-phenyl)-methyl-(2-methyl-quinazolin-4-yl)-amine hydrochloride and remained for observation and safety evaluation for approximately 24 hours following the end of the infusion. All subject had continuous telemetry for 2 hours prior to infusion, for 1-2 hour infusion and for 3 hours after the end of the infusion. Any clinically significant electrocardiographic (ECG) wave form abnormality was recorded and prolongation of the monitoring period extended at the discretion of the principal investigator.
Electrocardiograms were obtained prior to starting the infusion and within 30 minutes of the end of infusion for each infusino of the first cycle. Electrocardiograms on Day 1 were obtained in triplicate 5 minutes apart.
Neurocognitive assessments were made by administration of the Mini-Mental State Examination (MMSE), the Hopkins Verbal Learning and timed Grooved Pegboard tests before administration of the intravenous infusion and approximately 24 hours of the infusion at each weekly administration of the first cycle.
On days 1, 8, and 15 of each cycle, vital signs were obtained prior to the first dose, at 15, 30, and 60 minutes after the initiation of the infusion, and at 0.5, 1, 1.5, 2, and 4 hours after the end of the intravenous infusion. Vital signs at all time points beyond the start of the intravenous infusion included heart rate, blood pressure and respirations. Temperature ws measured at the end of the infusion and 4 hours later.
Individual subjects were allowed to continue on repeated weekly×3 administrations every 28 days with no dose increase provided there was no unacceptable toxicity or disease progression.
Tumor response was evaluated by response evaluation criteria in solid tumors (RECIST) criteria. To prevent sever hypersensitivity reactions due to Cremophor® EL, subjects were premedicated with oral dexamethasone (20 mg) administered approximately 12 and 6 hours before the intravenous infusion with (4-Methoxy-phenyl)-methyl-(2-methyl-quinazolin-4-yl)-amine hydrochloride, diphenhydramine (50 mg) or its equivalent administered intravenously 30-60 minutes before (4-Methoxy-phenyl)-methyl-(2-methyl-quinazolin-4-yl)-amine hydrochloride, and cimetidine (300 mg) or ranitidine (50 mg) administered intravenously 30-60 minutes before (4-Methoxy-phenyl)-methyl-(2-methyl-quinazolin-4-yl)-amine hydrochloride.

SMILES | blood vessels in the necrotic areas [1] | tumor necrosis pattern (central area of the tumors) [1] | degree of necrosis compared with CA4P treated animals ([1]; OVCAR-3 xenograft, 10 mg/kg compound vs 100 mg/kg CA4P) | bradycardia [2] | dose limiting toxicity [2] | intratumor bleeding [2] | overall safety and tolerability [2] | peripheral cytotoxicity [2] | systolic blood pressure [2] | effects on cardiac conduction (PR, QRS or QTc) ([2]; ECG)
COc1ccc(/C=C\c2cc(OC)c(OC)c(OC)c2)cc1OP(=O)(O)O [CA4P, combretastatin A-4 phosphate, reference compound] | consistently congested with perivascular hemorrhage | extensive necrosis with a rim of viable tumor tissue around the periphery | – | – | – | – | – | – | – | –
COc1ccc(N(C)c2nc(C)nc3ccccc23)cc1 [(4-Methoxy-phenyl)-methyl-(2-methyl-quinazolin-4-yl)-amine hydrochloride] | consistently congested with perivascular hemorrhage | extensive necrosis with a rim of viable tumor tissue around the periphery | degree of necrosis appeared greater | occasional episodes of bradycardia | vascular in nature, manifested by an acute coronary syndrome | incidences of intratumor bleeding | safe and tolerable | no evidence of cytotoxity peripherally | dose-related increase | no significant effects
